Reference: the supplement of paper PMC10307832

What was measured:
Experiment in all cases: relative viability (nuclei count vs DMSO), 5 days (fraction); higher = more cells survive
[1] = compound: C1CCC(CC1)N(CCNCCC2=C3C(=C(C=C2)O)NC(=O)CO3)C(=O)CCNCCC4=CC(=C(C=C4)Cl)Cl [AZ505] + CC(=O)Nc1cccc(-n2c(=O)n(C3CC3)c(=O)c3c(Nc4ccc(I)cc4F)n(C)c(=O)c(C)c32)c1 [Trametinib] (partner 0.02 µM)
How it was run: (§1)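 For relative viability, nuclei counts in treated wells were divided by those in vehicle wells. Lung cancer cell lines had been pin-tool dosed in 1536-well plates the day after seeding and cultured for 5 days, then fixed and stained in one step (final 0.05% Triton X-100, 1% formaldehyde, 1 ug/ml Hoechst) and imaged at 4×. Doses were one drug alone or a fixed anchor-drug dose plus five library-drug doses (not always all listed) in √10 steps, and values are duplicate-plate medians.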

[2] = compound: C1CCC(CC1)N(CCNCCC2=C3C(=C(C=C2)O)NC(=O)CO3)C(=O)CCNCCC4=CC(=C(C=C4)Cl)Cl [AZ505] + C[C@@H](Oc1cc(-c2cnn(C3CCNCC3)c2)cnc1N)c1c(Cl)ccc(F)c1Cl [Crizotinib] (partner 1 µM)
How it was run: as §1

[3] = compound: Cn1c(=O)n(-c2ccc(C(C)(C)C#N)cc2)c2c3cc(-c4cnc5ccccc5c4)ccc3ncc21 [Dactolisib] + CC(C)C[C@H](NC(=O)[C@H](Cc1ccccc1)NC(=O)c1cnccn1)B(O)O [Bortezomib] (partner 0.002 µM)
How it was run: as §1

[4] = compound: Cn1c(=O)n(-c2ccc(C(C)(C)C#N)cc2)c2c3cc(-c4cnc5ccccc5c4)ccc3ncc21 [Dactolisib] + Nc1nc2[nH]cc(CCc3ccc(C(=O)N[C@@H](CCC(=O)O)C(=O)O)cc3)c2c(=O)[nH]1 [Pemetrexed] (partner 0.2 µM)
How it was run: as §1

UMC-11
relative viability ([1]; first compound 0.08 µM): 0.588
relative viability ([1]; first compound 0.253 µM): 0.643
relative viability ([1]; first compound 0.8 µM): 0.697
relative viability ([1]; first compound 2.53 µM): 0.789
relative viability ([1]; first compound 8 µM): 0.672
relative viability ([2]; first compound 0.08 µM): 0.537
relative viability ([2]; first compound 0.253 µM): 0.588
relative viability ([2]; first compound 0.8 µM): 0.639
relative viability ([2]; first compound 2.53 µM): 0.709
relative viability ([2]; first compound 8 µM): 0.573
relative viability ([3]; first compound 0.002 µM): 0.732
relative viability ([3]; first compound 0.006325 µM): 0.649
relative viability ([3]; first compound 0.02 µM): 0.57
relative viability ([3]; first compound 0.06325 µM): 0.261
relative viability ([3]; first compound 0.2 µM): 0.18
relative viability ([4]; first compound 0.002 µM): 0.855
relative viability ([4]; first compound 0.006325 µM): 0.742
relative viability ([4]; first compound 0.02 µM): 0.552
relative viability ([4]; first compound 0.06325 µM): 0.453
relative viability ([4]; first compound 0.2 µM): 0.26
